Source: patent publication US20120035135A1, “Treatment of Transgenic Crops with Mixtures of Fiproles and Chloronicotinyls” (Bayer CropScience AG, priority 2008, published 2012)

Key:
Format in all cases: in vivo
Spodoptera frugiperda [1] = assay: Spodoptera frugiperda test (leaf application) on transgenic corn; settings: 96 h, after 4 d
Source text: (§1) The expected activity for a given combination of two (or more) active compounds can be calculated (cf. COLBY, S. R.; “Calculating Synergistic and Antagonistic Responses of Herbicide Combinations”, Weeds 15, pages 20-22, 1967):′
(§2) If • X=the kill rate, expressed in % of the untreated control, when employing active compound A at an application rate of m ppm or m g/ha, • Y=the kill rate, expressed in % of the untreated control, when employing active compound B at an application rate of n ppm or n g/ha, • Z=the kill rate, expressed in % of the untreated control, when employing active compound C at an application rate of r ppm or r g/ha, • E=the kill rate, expressed in % of the untreated control, when employing active compounds A and B and C at application rates of m, n, and r ppm or m, n, and r g/ha, then for a combination of two ore more components
(§3) If the actual insecticidal kill rate is higher than the calculated one, the kill rates of the combination are super additive, i.e. a synergistic effect is present. In this case, the kill rate that is actually observed has to be higher than the value, calculated using the formula above, for the expected kill rate (E). […]
(§4) After the specified period of time, the mortality in % is determined. […]

Spodoptera exigua = Spodoptera exigua test (leaf application) on transgenic corn; settings: 96 h, after 4 d
Source text: as §1, §2
(§5) If the actual insecticidal kill rate is higher than the calculated one, the kill rates of the combination are super additive, i.e. a synergistic effect is present. In this case, the kill rate that is actually observed has to be higher than the value, calculated using the formula above, for the expected kill rate (E).
Transgenic corn plants containing lepidoptera, coleoptera and/or herbicide resistance were treated with the respective products against the beet army worm (Spodoptera exigua).
(§6) After the specified period of time, the mortality in % is determined. 100% means that all the caterpillars have been killed; 0% means that none of the caterpillars have been killed.

Spodoptera frugiperda [2] = assay: Spodoptera frugiperda test (leaf application) on transgenic cotton; settings: 24 h, after 1 d
Source text: as §1, §2, §5
Transgenic cotton plants containing lepidoptera and herbicide resistance were treated with the respective products against the fall army worm (Spodoptera frugiperda).
as §6

Spodoptera frugiperda [3] = assay: Spodoptera frugiperda test (drench application) on transgenic corn; settings: soil, 96 h, after 4 d
Source text: as §1, §2, §3, §4

N#Cc1nn(-c2c(Cl)cc(C(F)(F)F)cc2Cl)c(N)c1[S+]([O-])C(F)(F)F (stereo not shown) [Fipronil, fipronil]
mortality at 4 ppm (Spodoptera frugiperda [1]; 4 ppm): 15%
mortality at 4 ppm (Spodoptera exigua; 4 ppm): 0%
mortality at 20 ppm (Spodoptera frugiperda [2]): 0%
mortality at 20 ppm (Spodoptera frugiperda [3]; 20 ppm): 0%

O=[N+]([O-])NC1=NCCN1Cc1ccc(Cl)nc1 [Imidacloprid, imidacloprid]
mortality at 100 ppm (Spodoptera frugiperda [1]; 100 ppm): 15%
mortality at 20 ppm (Spodoptera exigua; 20 ppm): 0%
mortality at 100 ppm (Spodoptera exigua; 100 ppm): 10%
mortality at 100 ppm (Spodoptera frugiperda [2]; 100 ppm): 50%
mortality at 100 ppm (Spodoptera frugiperda [3]; 100 ppm): 0%

CC[S+]([O-])c1c(C#N)nn(-c2c(Cl)cc(C(F)(F)F)cc2Cl)c1N (stereo not shown) [Ethiprole, ethiprole]
mortality at 20 ppm (Spodoptera frugiperda [2]): 0%
